Assay results: patent US12503452B2 (Curza Global, LLC, priority 2019, dated 2025)
Where two headings read alike, the source gives them in different places.

What was measured:
A. baumannii (Ab) = assay: Broth microdilution minimum inhibitory concentration (MIC); type: cell-based; conditions: Acinetobacter baumannii, A. baumannii, read-out: Ab + bicarb MIC
How it was run: (§1)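 Two-fold compound series, 8 points in triplicate; medium CAMHB ± NaHCO3 (6.25 or 25 mM final) or ± 0–50% heat-inactivated human serum; inoculum 5×10^4 CFU/well; growth-method 0.5 McFarland suspensions; modified CLSI M07-A9.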

E. faecalis (Ef) = assay: as above; type: cell-based; conditions: Enterococcus faecalis, E. faecalis, read-out: Ef + bicarb MIC
How it was run: as §1

E. coli (Ec) = assay: as above; type: cell-based; conditions: Escherichia coli, E. coli, read-out: E. coli + bicarb MIC
How it was run: as §1

S. aureus (Sa) = assay: as above; type: cell-based; conditions: Staphylococcus aureus, S. aureus, read-out: Sa + bicarb MIC
How it was run: as §1

P. aeruginosa (Pa) = assay: as above; type: cell-based; conditions: Pseudomonas aeruginosa, P. aeruginosa, read-out: Pa MIC + bicarb
How it was run: as §1

[1] = system: E. coli S30 extract (bacterial protein synthesis); assay: E. coli S30 extract coupled transcription-translation luciferase assay (inhibition of bacterial protein synthesis); type: biochemical; conditions: class by IC50 or % inhibition @ 1 μM, read-out: S30 IC50 (μM/% inhib.)
How it was run: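 Luminescent read-out of luciferase made from pBESTluc DNA by E. coli S30 extract after 1 h at 37 °C with compound in an 8-point 2-fold series. Background came from no-DNA reactions. Percent inhibition was calculated against water-only controls.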

[2] = biological target: Rabbit Reticulocyte Lysate (eukaryotic protein synthesis); assay: Rabbit reticulocyte lysate luciferase assay (inhibition of eukaryotic protein synthesis); type: biochemical; conditions: class by IC50 or % inhibition @ 1 μM, read-out: Rabbit reticulocyte IC50 (μM/% inhib.)
How it was run: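 Compounds were tested in 8-point 2-fold dilution series for blocking luciferase synthesis in nuclease-treated rabbit reticulocyte lysate (30° C., 90 minutes). Luminescence read-out, corrected by no-RNA background, was expressed as % inhibition against water-only reactions.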

[3] = growth medium supplemented with sodium bicarbonate
[4] = growth medium with sodium bicarbonate

Row | SMILES | MIC (A. baumannii (Ab); [3]) [µg/mL] | MIC (E. faecalis (Ef); [3]) [µg/mL] | MIC (E. coli (Ec); [3]) [µg/mL] | MIC (S. aureus (Sa); [3]) [µg/mL] | MIC (P. aeruginosa (Pa); [3]) [µg/mL] | IC50 [1] [µM] | IC50 [2] [µM] | MIC (A. baumannii (Ab); [4]) [µg/mL] | MIC (E. faecalis (Ef); [4]) [µg/mL] | MIC (E. coli (Ec); [4]) [µg/mL] | MIC (S. aureus (Sa); [4]) [µg/mL] | MIC (P. aeruginosa (Pa); [4]) [µg/mL]
1 | CC(C)(N)C(=O)N1CCN(C(=O)Nc2ccn(-c3cccc(CCN4CC[C@H](CN)C4)c3)c(=O)n2)CC1 (stereo in doubt) [Compound 24] | > 32 | > 32 | 8 to 32 | 8 to 32 | > 32 | < 0.5 | > 1 | – | – | – | – | –
2 | C[C@@H]1CCN(CCc2ccc(-n3ccc(NC(=O)N4CCN(C(=O)[C@](C)(N)CO)CC4)nc3=O)cc2)CC[C@H]1N (stereo in doubt) [Compound 28] | > 32 | < 8 | < 8 | < 8 | > 32 | < 0.5 | > 1 | – | – | – | – | –
3 | CC(C)(N)C(=O)N1CCN(C(=O)Nc2ccn(-c3ccc(CCN[C@H]4CC[C@@H](CN)C4)cc3)c(=O)n2)CC1 (stereo in doubt) [Compound 177] | – | – | – | – | – | > 1 | > 1 | > 32 | > 32 | < 8 | < 8 | > 32
4 | CN(CCc1ccc(-n2ccc(NC(=O)N3CCN(C(=O)C(C)(C)N)CC3)nc2=O)cc1)[C@H]1CC[C@@H](CN)C1 (stereo in doubt) [Compound 178] | – | – | – | – | – | > 1 | > 1 | > 32 | > 32 | < 8 | 8 to 32 | > 32
5 | CC[C@@H]1CN(Cc2ccc(-n3ccc(NC(=O)N4CCN(C(=O)C(C)(C)N)CC4)nc3=O)cc2)CC[C@H]1N (stereo in doubt) [Compound 213] | – | – | – | – | – | < 0.5 | > 1 | > 32 | < 8 | < 8 | < 8 | > 32
6 | CC(C)(N)C(=O)N1CCN(C(=O)Nc2ccn(-c3ccc(CCN4CCCC(N)CC4)cc3)c(=O)n2)CC1 (stereo not drawn) [Compound 21] | > 32 | < 8 | < 8 | < 8 | 8 to 32 | < 0.5 | > 1 | – | – | – | – | –
7 | CCC(N)C1CCCN(CCc2ccc(-n3ccc(NC(=O)N4CCN(C(=O)C(C)(C)N)CC4)nc3=O)cc2)C1 (stereo not drawn) [Compound 23] | > 32 | > 32 | < 8 | 8 to 32 | > 32 | > 1 | > 1 | – | – | – | – | –
8 | CC(C)(N)C(=O)N1CCN(C(=O)Nc2ccn(-c3ccc(CCN4CCC[C@@H](CN)C4)cc3)c(=O)n2)CC1 [Compound 25] | > 32 | > 32 | < 8 | < 8 | > 32 | 0.5 to 1 | > 1 | – | – | – | – | –
9 | CC(C)(N)C(=O)N1CCN(C(=O)Nc2ccn(-c3ccc(CCN4CCC[C@H](CN)C4)cc3)c(=O)n2)CC1 [Compound 26] | > 32 | 8 to 32 | < 8 | < 8 | > 32 | < 0.5 | > 1 | – | – | – | – | –
10 | C[C@@H]1CCN(CCc2ccc(-n3ccc(NC(=O)N4CCN(C(=O)C(C)(C)N)CC4)nc3=O)cc2)CC[C@H]1N [Compound 27] | > 32 | < 8 | < 8 | < 8 | 8 to 32 | < 0.5 | > 1 | – | – | – | – | –
11 | CC(C)(N)C(=O)N1CCN(C(=O)Nc2ccn(-c3ccc(CCN4CCCC(NC5CC5)CC4)cc3)c(=O)n2)CC1 (stereo not drawn) [Compound 29] | > 32 | > 32 | < 8 | 8 to 32 | > 32 | > 1 | > 1 | – | – | – | – | –
12 | CC(C)(N)C(=O)N1CCN(C(=O)Nc2ccn(-c3ccc(CCNC4CCCNCC4)cc3)c(=O)n2)CC1 (stereo not drawn) [Compound 30] | > 32 | > 32 | < 8 | < 8 | > 32 | < 0.5 | > 1 | – | – | – | – | –
13 | CC(C)(N)C(=O)N1CCN(C(=O)Nc2ccn(-c3ccc(CCCN4CCCC(N)CC4)cc3)c(=O)n2)CC1 (stereo not drawn) [Compound 31] | > 32 | 8 to 32 | < 8 | < 8 | > 32 | < 0.5 | > 1 | – | – | – | – | –
14 | CC(C)(N)C(=O)N1CCN(C(=O)Nc2ccn(-c3ccc(CCCN4CC(N)C4)cc3)c(=O)n2)CC1 [Compound 32] | > 32 | > 32 | 8 to 32 | 8 to 32 | > 32 | > 1 | > 1 | – | – | – | – | –
15 | CNC1CCCN(CCc2ccc(-n3ccc(NC(=O)N4CCN(C(=O)C(C)(C)N)CC4)nc3=O)cc2)CC1 (stereo not drawn) [Compound 33] | > 32 | > 32 | < 8 | 8 to 32 | > 32 | 0.5 to 1 | > 1 | – | – | – | – | –
16 | CC(N)C1CCN(CCc2cccc(-n3ccc(NC(=O)N4CCN(C(=O)C(C)(C)N)CC4)nc3=O)c2)CC1 (stereo not drawn) [Compound 34] | > 32 | < 8 | < 8 | < 8 | > 32 | < 0.5 | > 1 | – | – | – | – | –
17 | C[C@@](N)(CO)C(=O)N1CCN(C(=O)Nc2ccn(-c3ccc(CCN4CCCC(N)CC4)cc3)c(=O)n2)CC1 (stereo partly drawn) [Compound 35] | > 32 | < 8 | < 8 | < 8 | 8 to 32 | > 1 | > 1 | – | – | – | – | –
18 | CC(C)(N)C(=O)N1CCN(C(=O)Nc2ccn(-c3ccc(CN4CCC(N)CC4)cc3)c(=O)n2)CC1 [Compound 57] | > 32 | 8 to 32 | < 8 | < 8 | > 32 | < 0.5 | > 1 | – | – | – | – | –
19 | C[C@@H]1CN(C(=O)C(C)(C)N)CCN1C(=O)Nc1ccn(-c2ccc(CN3CCC(N)CC3)cc2)c(=O)n1 [Compound 61] | > 32 | 8 to 32 | < 8 | < 8 | > 32 | < 0.5 | > 1 | – | – | – | – | –
20 | CC(C)(N)C(=O)N1CCN(C(=O)Nc2ccn(-c3ccc(CN4CCC(N)CC4)cc3)c(=O)n2)C(CO)C1 (stereo not drawn) [Compound 62] | > 32 | > 32 | < 8 | > 32 | > 32 | < 0.5 | > 1 | – | – | – | – | –
21 | CC(N)C1CCN(Cc2ccc(-n3ccc(NC(=O)N4CCN(C(=O)[C@@](C)(N)CO)[C@H](C)C4)nc3=O)cc2)CC1 (stereo partly drawn) [Compound 70] | > 32 | < 8 | < 8 | < 8 | > 32 | < 0.5 | > 1 | – | – | – | – | –
22 | C[C@@H]1CN(C(=O)Nc2ccn(-c3ccc(CCN4CCCC(N)CC4)cc3)c(=O)n2)CCN1C(=O)C(C)(C)N (stereo partly drawn) [Compound 71] | < 8 | < 8 | < 8 | < 8 | 8 to 32 | < 0.5 | > 1 | – | – | – | – | –
23 | C[C@@H]1CN(C(=O)Nc2ccn(-c3ccc(CN4CCC(N)CC4)cc3)c(=O)n2)CCN1C(=O)C(C)(C)N [Compound 79] | > 32 | 8 to 32 | < 8 | < 8 | > 32 | < 0.5 | > 1 | – | – | – | – | –
24 | C[C@@H]1CN(C(=O)C(C)(C)N)CCN1C(=O)Nc1ccn(-c2ccc(CN3CCC(CN)CC3)cc2)c(=O)n1 [Compound 82] | 8 to 32 | < 8 | < 8 | < 8 | > 32 | < 0.5 | > 1 | – | – | – | – | –
